Results reported in patent publication US10023570B2 (Array BioPharma, Inc., priority 2015, dated 2018).
Counter-ions that a name gives are not always drawn.

Target: human KDR protein in HEK-293 cells (Homo sapiens (Human), UniProt P35968)
Experiment: KDR Cell Assay (phospho-KDR in HEK-293 cells expressing inducible KDR)
Type: cell-based
Settings: pKDR Cell HEK 10% FBS IC50, HEK-293 cells expressing inducible KDR, VEGF stimulated
In short: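 HEK-293 cells with inducible human KDR were treated with compound for 1 h in DMEM (0.25% DMSO final), then lysed. Phospho-KDR was quantified by Meso Scale immunoassay, expressed as percent of control, and IC50 taken where a 4-parameter logistic fit crossed 50 POC.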

Sequence of human KDR protein in HEK-293 cells (P35968 20-1356): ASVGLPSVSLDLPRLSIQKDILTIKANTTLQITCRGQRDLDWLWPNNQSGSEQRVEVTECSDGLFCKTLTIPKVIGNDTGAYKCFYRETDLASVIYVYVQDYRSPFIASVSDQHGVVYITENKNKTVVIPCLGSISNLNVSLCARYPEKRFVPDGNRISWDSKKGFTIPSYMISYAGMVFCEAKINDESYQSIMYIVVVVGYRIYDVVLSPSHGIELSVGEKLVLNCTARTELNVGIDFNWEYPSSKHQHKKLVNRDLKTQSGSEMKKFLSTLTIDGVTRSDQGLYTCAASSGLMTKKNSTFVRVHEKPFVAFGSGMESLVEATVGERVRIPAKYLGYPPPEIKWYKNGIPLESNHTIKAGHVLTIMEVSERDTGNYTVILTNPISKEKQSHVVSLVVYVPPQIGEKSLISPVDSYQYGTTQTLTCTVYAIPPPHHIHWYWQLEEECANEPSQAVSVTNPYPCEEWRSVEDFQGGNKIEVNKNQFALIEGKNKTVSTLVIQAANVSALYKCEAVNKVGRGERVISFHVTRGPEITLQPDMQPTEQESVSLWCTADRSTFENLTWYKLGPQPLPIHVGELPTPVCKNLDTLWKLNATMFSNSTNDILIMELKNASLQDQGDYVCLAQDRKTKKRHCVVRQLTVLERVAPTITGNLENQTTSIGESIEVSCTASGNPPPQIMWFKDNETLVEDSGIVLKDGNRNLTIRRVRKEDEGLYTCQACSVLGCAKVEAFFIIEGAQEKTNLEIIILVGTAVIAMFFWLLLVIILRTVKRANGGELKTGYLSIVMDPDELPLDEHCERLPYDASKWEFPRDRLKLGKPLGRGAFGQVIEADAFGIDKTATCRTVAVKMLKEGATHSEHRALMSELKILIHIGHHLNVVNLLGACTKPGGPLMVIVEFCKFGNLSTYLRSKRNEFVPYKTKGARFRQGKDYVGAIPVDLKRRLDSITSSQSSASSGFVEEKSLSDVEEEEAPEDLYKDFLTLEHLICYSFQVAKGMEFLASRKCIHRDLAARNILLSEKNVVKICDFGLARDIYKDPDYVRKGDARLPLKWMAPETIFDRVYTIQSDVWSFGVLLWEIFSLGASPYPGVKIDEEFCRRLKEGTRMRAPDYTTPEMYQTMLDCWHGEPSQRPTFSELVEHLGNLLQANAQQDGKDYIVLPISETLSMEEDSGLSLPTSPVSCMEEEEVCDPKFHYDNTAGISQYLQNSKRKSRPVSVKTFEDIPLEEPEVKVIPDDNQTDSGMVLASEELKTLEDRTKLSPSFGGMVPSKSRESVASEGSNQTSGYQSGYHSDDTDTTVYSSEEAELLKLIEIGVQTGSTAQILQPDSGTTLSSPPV

SMILES	IC50 (10% FBS) [nM]	IC50 [nM]
Cn1cc(-c2cc(-c3ccc(N4CCC(c5ccc(Cl)cc5)CC4)nc3)c3c(C#N)cnn3c2)cn1 [Example 534, 4-(6-(4-(4-chlorophenyl)piperidin-1-yl)pyridin-3-yl)-6-(1-methyl-1H-pyrazol-4-yl)pyrazolo[1,5-a]pyridine-3-carbonitrile 2,2,2-trifluoroacetate]	–	12.5
Cn1cc(-c2cc(-c3ccc(N4CCCC4)nc3)c3c(Cl)cnn3c2)cn1 [Example 339, 3-chloro-6-(1-methyl-1H-pyrazol-4-yl)-4-(6-(pyrrolidin-1-yl)pyridin-3-yl)pyrazolo[1,5-a]pyridine]	3700	–
CCn1cc(CN2CCN(c3ccc(-c4cc(-c5cnn(C)c5)cn5ncc(C#N)c45)cn3)CC2)cn1 [Example 446, 4-(6-(4-((1-ethyl-1H-pyrazol-4-yl)methyl)piperazin-1-yl)pyridin-3-yl)-6-(1-methyl-1H-pyrazol-4-yl)pyrazolo[1,5-a]pyridine-3-carbonitrile]	–	1470
CN(C)CC(=O)N1CC2(CCN(c3ccc(-c4cc(-c5cnn(C)c5)cn5ncc(C#N)c45)cn3)CC2)C1 [Example 494, 4-(6-(2-(2-(dimethylamino)acetyl)-2,7-diazaspiro[3.5]nonan-7-yl)pyridin-3-yl)-6-(1-methyl-1H-pyrazol-4-yl)pyrazolo[1,5-a]pyridine-3-carbonitrile]	–	1830
COc1ncc(C(=O)N2C3CC2CN(c2ccc(-c4cc(-c5cnn(C)c5)cn5ncc(C#N)c45)cn2)C3)cc1F [Example 688, 4-(6-(6-(5-fluoro-6-methoxynicotinoyl)-3,6-diazabicyclo[3.1.1]heptheptan-3-yl)pyridin-3-yl)-6-(1-methyl-1H-pyrazol-4-yl)pyrazolo[1,5-a]pyridine-3-carbonitrile]	–	50.9
Cn1cc(-c2cc(-c3ccc(N4[C@@H]5CC[C@H]4C[C@H](NC(=O)OC(C)(C)C)C5)nc3)c3c(C#N)cnn3c2)cn1 [Example 192, tert-butyl ((1R,3s,5S)-8-(5-(3-cyano-6-(1-methyl-1H-pyrazol-4-yl)pyrazolo[1,5-a]pyridin-4-yl)pyridin-2-yl)-8-azabicyclo[3.2.1]octan-3-yl)carbamate]	932	–
Cn1cc(-c2cc(-c3ccc(N4CCC(O)(C(F)(F)F)C4)nc3)c3c(C#N)cnn3c2)cn1 (stereo not shown) [Example 531, 4-(6-(3-hydroxy-3-(trifluoromethyl)pyrrolidin-1-yl)pyridin-3-yl)-6-(1-methyl-1H-pyrazol-4-yl)pyrazolo[1,5-a]pyridine-3-carbonitrile 2,2,2-trifluoroacetate]	–	690
Cn1cc(-c2cc(-c3ccc(N4CCN(C(=O)CC5CCOC5)CC4)nc3)c3c(C#N)cnn3c2)cn1 (stereo not shown) [Example 62, 6-(1-methyl-1H-pyrazol-4-yl)-4-(6-(4-(2-(tetrahydrofuran-3-yl)acetyl)piperazin-1-yl)pyridin-3-yl)pyrazolo[1,5-a]pyridine-3-carbonitrile]	1300	–
Cn1cc(-c2cc(-c3ccc(N4CCN([C@@H]5COC[C@H]5O)CC4)nc3)c3c(C#N)cnn3c2)cn1 [Example 159, 4-(6-(4-((3r,4s)-4-hydroxytetrahydrofuran-3-yl)piperazin-1-yl)pyridin-3-yl)-6-(1-methyl-1H-pyrazol-4-yl)pyrazolo[1,5-a]pyridine-3-carbonitrile]	1300	–
Cn1cc(-c2cc(-c3ccc(N4CCN(C(=O)N5CCCC5(C)C)CC4)nc3)c3c(C#N)cnn3c2)cn1 [Example 124, 4-(6-(4-(2,2-dimethylpyrrolidine-1-carbonyl)piperazin-1-yl)pyridin-3-yl)-6-(1-methyl-1H-pyrazol-4-yl)pyrazolo[1,5-a]pyridine-3-carbonitrile]	1860	–
CN(C)C(C(=O)N1CCN(c2ccc(-c3cc(-c4cnn(C)c4)cn4ncc(C#N)c34)cn2)CC1)c1ccc(F)cc1 (stereo not shown) [Example 351, 4-(6-(4-(2-(dimethylamino)-2-(4-fluorophenyl)acetyl)piperazin-1-yl)pyridin-3-yl)-6-(1-methyl-1H-pyrazol-4-yl)pyrazolo[1,5-a]pyridine-3-carbonitrile]	1760	–
CC(C)O[C@@H]1CCN(C(=O)N2CCN(c3ccc(-c4cc(-c5cnn(C)c5)cn5ncc(C#N)c45)cn3)CC2)C1 [Example 107, (R)-4-(6-(4-(3-isopropoxypyrrolidine-1-carbonyl)piperazin-1-yl)pyridin-3-yl)-6-(1-methyl-1H-pyrazol-4-yl)pyrazolo[1,5-a]pyridine-3-carbonitrile]	893	–
Cn1cc(-c2cc(-c3cnc(N4CCN(C(=O)[C@H](O)c5ccccc5)CC4)cn3)c3c(C#N)cnn3c2)cn1 [Example 288, (R)-4-(5-(4-(2-hydroxy-2-phenylacetyl)piperazin-1-yl)pyrazin-2-yl)-6-(1-methyl-1H-pyrazol-4-yl)pyrazolo[1,5-a]pyridine-3-carbonitrile]	1940	–
Cn1cc(-c2cc(-c3ccc(N4CCN(C(=O)N5CCCCC5)CC4)nc3)c3c(C#N)cnn3c2)cn1 [Example 93, 6-(1-methyl-1H-pyrazol-4-yl)-4-(6-(4-(piperidine-1-carbonyl)piperazin-1-yl)pyridin-3-yl)pyrazolo[1,5-a]pyridine-3-carbonitrile]	1700	–
Cn1cc(-c2cc(-c3ccc(N4CCN(C(=O)N5CCC(F)(F)CC5)CC4)nc3)c3c(C#N)cnn3c2)cn1 [Example 115, 4-(6-(4-(4,4-difluoropiperidine-1-carbonyl)piperazin-1-yl)pyridin-3-yl)-6-(1-methyl-1H-pyrazol-4-yl)pyrazolo[1,5-a]pyridine-3-carbonitrile]	3180	–
C[C@@H](O)Cn1cc(-c2cc(-c3ccc(N4CCN(C(=O)CC(C)(C)C)CC4)cc3)c3c(C#N)cnn3c2)cn1 [Example 305, (R)-4-(4-(4-(3,3-dimethylbutanoyl)piperazin-1-yl)phenyl)-6-(1-(2-hydroxypropyl)-1H-pyrazol-4-yl)pyrazolo[1,5-a]pyridine-3-carbonitrile]	1490	–
CN(C)CC(=O)N1CCN(c2ccc(-c3cc(-c4cnn(C)c4)cn4ncc(C#N)c34)cc2)CC1 [Example 296, 4-(4-(4-(2-(dimethylamino)acetyl)piperazin-1-yl)phenyl)-6-(1-methyl-1H-pyrazol-4-yl)pyrazolo[1,5-a]pyridine-3-carbonitrile]	2350	–
Cn1cc(-c2cc(-c3ccc(N4CCCC5(CCCN5)C4)nc3)c3c(C#N)cnn3c2)cn1 (stereo not shown) [Example 542, 4-(6-(1,7-diazaspiro[4.5]decan-7-yl)pyridin-3-yl)-6-(1-methyl-1H-pyrazol-4-yl)pyrazolo[1,5-a]pyridine-3-carbonitrile dihydrochloride]	–	222

More lines, main results first:

IC50 (10% FBS) [nM]	SMILES	IC50 [nM]
376	Cn1cc(-c2cc(-c3ccc(N4CCN(C(=O)[C@@H]5CCCO5)CC4)nc3)c3c(C#N)cnn3c2)cn1 [Example 60, (S)-6-(1-methyl-1H-pyrazol-4-yl)-4-(6-(4-(tetrahydrofuran-2-carbonyl)piperazin-1-yl)pyridin-3-yl)pyrazolo[1,5-a]pyridine-3-carbonitrile]	–
643	C[C@H](C(=O)N1CCN(c2ccc(-c3cc(-c4cnn(C)c4)cn4ncc(C#N)c34)cn2)CC1)c1ccccc1 [Example 15, (S)-6-(1-methyl-1H-pyrazol-4-yl)-4-(6-(4-(2-phenylpropanoyl)piperazin-1-yl)pyridin-3-yl)pyrazolo[1,5-a]pyridine-3-carbonitrile]	–
32.7	Cn1cc(-c2cc(-c3ccc(N4CCN(C(=O)[C@H](O)Cc5ccccc5)CC4)nc3)c3c(C#N)cnn3c2)cn1 [Example 9, (R)-4-(6-(4-(2-hydroxy-3-phenylpropanoyl)piperazin-1-yl)pyridin-3-yl)-6-(1-methyl-1H-pyrazol-4-yl)pyrazolo[1,5-a]pyridine-3-carbonitrile]	–
605	Cn1cc(-c2cc(-c3ccc(N4CCN(C(=O)CC5CC5)CC4)nc3)c3c(C#N)cnn3c2)cn1 [Example 77, 4-(6-(4-(2-cyclopropylacetyl)piperazin-1-yl)pyridin-3-yl)-6-(1-methyl-1H-pyrazol-4-yl)pyrazolo[1,5-a]pyridine-3-carbonitrile]	–
277	Cn1cc(-c2cc(-c3ccc(N4CCC(N5CC[C@H](O)C5=O)CC4)nc3)c3c(C#N)cnn3c2)cn1 [Example 190, (S)-4-(6-(4-(3-hydroxy-2-oxopyrrolidin-1-yl)piperidin-1-yl)pyridin-3-yl)-6-(1-methyl-1H-pyrazol-4-yl)pyrazolo[1,5-a]pyridine-3-carbonitrile]	–
607	CC(C)C(C(=O)N1CCN(c2ccc(-c3cc(-c4cnn(C)c4)cn4ncc(C#N)c34)cn2)CC1)c1ccccc1 (stereo not shown) [Example 29, 6-(1-methyl-1H-pyrazol-4-yl)-4-(6-(4-(3-methyl-2-phenylbutanoyl)piperazin-1-yl)pyridin-3-yl)pyrazolo[1,5-a]pyridine-3-carbonitrile]	–
429	Cn1cc(-c2cc(-c3ccc(N4CCC5(CCN(C(=O)OC(C)(C)C)C5)CC4)nc3)c3c(C#N)cnn3c2)cn1 [Example 204, tert-butyl 8-(5-(3-cyano-6-(1-methyl-1H-pyrazol-4-yl)pyrazolo[1,5-a]pyridin-4-yl)pyridin-2-yl)-2,8-diazaspiro[4.5]decane-2-carboxylate]	–
5.8	Cn1cc(-c2cc(-c3ccc(N4CCN(S(=O)(=O)CC5CC5)CC4)nc3)c3c(C#N)cnn3c2)cn1 [Example 87, 4-(6-(4-((cyclopropylmethyl)sulfonyl)piperazin-1-yl)pyridin-3-yl)-6-(1-methyl-1H-pyrazol-4-yl)pyrazolo[1,5-a]pyridine-3-carbonitrile]	–
93.5	Cn1cc(-c2cc(-c3ccc(N4CCN(C(=O)NCc5ccccc5)CC4)nc3)c3c(C#N)cnn3c2)cn1 [Example 129, N-benzyl-4-(5-(3-cyano-6-(1-methyl-1H-pyrazol-4-yl)pyrazolo[1,5-a]pyridin-4-yl)pyridin-2-yl)piperazine-1-carboxamide]	–
115	Cn1cc(-c2cc(-c3ccc(N4CCN(C(=O)C[C@@H](O)c5ccccc5)CC4)nc3)c3c(C#N)cnn3c2)cn1 [Example 7, (R)-4-(6-(4-(3-hydroxy-3-phenylpropanoyl)piperazin-1-yl)pyridin-3-yl)-6-(1-methyl-1H-pyrazol-4-yl)pyrazolo[1,5-a]pyridine-3-carbonitrile]	–
